{"source": "ChEMBL document CHEMBL1201862", "about": "“PubChem BioAssay data set” (2004)", "key": {"[1]": {"assay": "HEK293 cell viability, dose response, counter-screen for EBV LMP1 inhibitor project, dry powder, set 2 (AID 624374)", "type": "functional"}, "[2]": {"assay": "T. cruzi intracellular amastigote growth inhibition, dose response, imaging, CA-I/72 strain, bovine embryo skeletal muscle, dry powder (AID 651885)", "type": "functional, cell-based"}, "[3]": {"molecular_target": "T1, Sentrin-specific protease 1 (Homo sapiens, UniProt Q9P0U3)", "T1 sequence (Q9P0U3 whole entry)": "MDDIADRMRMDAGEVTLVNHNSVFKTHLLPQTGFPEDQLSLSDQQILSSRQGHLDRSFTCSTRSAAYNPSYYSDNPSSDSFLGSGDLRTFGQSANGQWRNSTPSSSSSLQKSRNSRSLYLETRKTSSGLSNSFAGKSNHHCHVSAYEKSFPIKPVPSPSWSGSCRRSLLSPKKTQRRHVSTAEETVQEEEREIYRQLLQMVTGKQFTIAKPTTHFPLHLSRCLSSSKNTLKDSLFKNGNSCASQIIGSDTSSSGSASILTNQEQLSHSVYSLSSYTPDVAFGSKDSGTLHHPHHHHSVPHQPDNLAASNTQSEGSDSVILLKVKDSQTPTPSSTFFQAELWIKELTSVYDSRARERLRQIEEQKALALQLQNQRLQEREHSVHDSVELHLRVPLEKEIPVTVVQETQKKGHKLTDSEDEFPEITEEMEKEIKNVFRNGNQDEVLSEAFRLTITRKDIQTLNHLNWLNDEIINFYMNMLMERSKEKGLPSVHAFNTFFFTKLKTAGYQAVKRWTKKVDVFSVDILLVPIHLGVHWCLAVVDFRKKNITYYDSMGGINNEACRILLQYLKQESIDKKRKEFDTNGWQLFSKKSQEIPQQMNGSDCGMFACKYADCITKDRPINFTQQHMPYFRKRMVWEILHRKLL", "assay": "potency of human SENP1 inhibitors, dose response, biochemical, kinetic FRET (AID 651697)", "type": "functional", "settings": "read-out: IC50_Mean"}, "[4]": {"molecular_target": "T1, Sentrin-specific protease 1", "assay": "Dose response confirmation of small molecule inhibitors of the catalytic domain of the SUMO protease, SENP1 in a FRET assay.", "type": "functional", "settings": "read-out: IC50_Mean"}, "[5]": {"molecular_target": "Nuclear receptor subfamily 0 group B member 1 (Homo sapiens, UniProt P51843)", "sequence (P51843 whole entry)": "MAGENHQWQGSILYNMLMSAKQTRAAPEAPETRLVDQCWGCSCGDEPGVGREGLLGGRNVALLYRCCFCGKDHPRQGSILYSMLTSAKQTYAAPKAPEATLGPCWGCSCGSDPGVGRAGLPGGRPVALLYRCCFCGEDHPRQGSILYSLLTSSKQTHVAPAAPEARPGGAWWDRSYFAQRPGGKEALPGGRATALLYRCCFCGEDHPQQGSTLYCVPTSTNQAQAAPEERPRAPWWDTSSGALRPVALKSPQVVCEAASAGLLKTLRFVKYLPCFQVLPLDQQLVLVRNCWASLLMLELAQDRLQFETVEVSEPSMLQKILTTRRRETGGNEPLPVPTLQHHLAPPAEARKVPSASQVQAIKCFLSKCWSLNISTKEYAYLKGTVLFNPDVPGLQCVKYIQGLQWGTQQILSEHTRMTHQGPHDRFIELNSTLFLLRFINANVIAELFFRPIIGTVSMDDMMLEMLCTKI", "type": "functional, cell-based"}, "cells": {"assay": "cells", "type": "functional, cell-based"}, "HEK293 [6]": {"tested_on": "HEK293", "assay": "cells", "type": "functional, cell-based", "settings": "Homo sapiens"}, "HEK293 [7]": {"tested_on": "HEK293", "assay": "cells", "type": "functional, cell-based", "settings": "Homo sapiens", "remark": "listed apart in the source"}, "HEK293 [8]": {"tested_on": "HEK293", "assay": "NOD1 signaling inhibitors, primary screen, cell-based, luminescence, uHTS (AID 1578)", "type": "functional", "settings": "Homo sapiens"}, "[9]": {"molecular_target": "T2, Beta-2 adrenergic receptor (Homo sapiens, UniProt P07550)", "T2 sequence (P07550 whole entry)": "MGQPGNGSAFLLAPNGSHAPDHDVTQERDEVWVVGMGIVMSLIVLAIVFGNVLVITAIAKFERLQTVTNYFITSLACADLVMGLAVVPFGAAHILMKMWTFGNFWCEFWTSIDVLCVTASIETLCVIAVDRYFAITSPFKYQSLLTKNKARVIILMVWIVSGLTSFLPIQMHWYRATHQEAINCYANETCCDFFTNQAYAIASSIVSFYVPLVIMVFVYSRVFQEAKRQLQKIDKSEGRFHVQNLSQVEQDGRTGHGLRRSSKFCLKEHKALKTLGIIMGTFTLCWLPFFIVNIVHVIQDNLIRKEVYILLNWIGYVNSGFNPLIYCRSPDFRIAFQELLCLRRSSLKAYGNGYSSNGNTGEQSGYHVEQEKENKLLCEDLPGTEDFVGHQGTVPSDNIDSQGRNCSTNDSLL", "assay": "Dose response for HTS for Beta-2AR agonists via FAP method from Powderset3.", "type": "functional"}, "[10]": {"molecular_target": "T2, Beta-2 adrenergic receptor", "assay": "beta2AR agonists driving receptor internalization, dose response, cell-based, FAP fluorogen, flow cytometry, cherry pick 1 (AID 588763)", "type": "functional"}, "HEK293 [11]": {"tested_on": "HEK293", "assay": "NOD2 signaling inhibitors in MDP-stimulated cells, cell-based, uHTS, luminescence (AID 2001)", "type": "functional", "settings": "Homo sapiens"}, "Vero [12]": {"tested_on": "Vero", "assay": "cells", "type": "functional", "settings": "Chlorocebus sabaeus"}, "[13]": {"molecular_target": "SWI/SNF-related matrix-associated actin-dependent regulator of chromatin subfamily A member 2 (Homo sapiens, UniProt P51531)", "sequence (P51531 whole entry)": "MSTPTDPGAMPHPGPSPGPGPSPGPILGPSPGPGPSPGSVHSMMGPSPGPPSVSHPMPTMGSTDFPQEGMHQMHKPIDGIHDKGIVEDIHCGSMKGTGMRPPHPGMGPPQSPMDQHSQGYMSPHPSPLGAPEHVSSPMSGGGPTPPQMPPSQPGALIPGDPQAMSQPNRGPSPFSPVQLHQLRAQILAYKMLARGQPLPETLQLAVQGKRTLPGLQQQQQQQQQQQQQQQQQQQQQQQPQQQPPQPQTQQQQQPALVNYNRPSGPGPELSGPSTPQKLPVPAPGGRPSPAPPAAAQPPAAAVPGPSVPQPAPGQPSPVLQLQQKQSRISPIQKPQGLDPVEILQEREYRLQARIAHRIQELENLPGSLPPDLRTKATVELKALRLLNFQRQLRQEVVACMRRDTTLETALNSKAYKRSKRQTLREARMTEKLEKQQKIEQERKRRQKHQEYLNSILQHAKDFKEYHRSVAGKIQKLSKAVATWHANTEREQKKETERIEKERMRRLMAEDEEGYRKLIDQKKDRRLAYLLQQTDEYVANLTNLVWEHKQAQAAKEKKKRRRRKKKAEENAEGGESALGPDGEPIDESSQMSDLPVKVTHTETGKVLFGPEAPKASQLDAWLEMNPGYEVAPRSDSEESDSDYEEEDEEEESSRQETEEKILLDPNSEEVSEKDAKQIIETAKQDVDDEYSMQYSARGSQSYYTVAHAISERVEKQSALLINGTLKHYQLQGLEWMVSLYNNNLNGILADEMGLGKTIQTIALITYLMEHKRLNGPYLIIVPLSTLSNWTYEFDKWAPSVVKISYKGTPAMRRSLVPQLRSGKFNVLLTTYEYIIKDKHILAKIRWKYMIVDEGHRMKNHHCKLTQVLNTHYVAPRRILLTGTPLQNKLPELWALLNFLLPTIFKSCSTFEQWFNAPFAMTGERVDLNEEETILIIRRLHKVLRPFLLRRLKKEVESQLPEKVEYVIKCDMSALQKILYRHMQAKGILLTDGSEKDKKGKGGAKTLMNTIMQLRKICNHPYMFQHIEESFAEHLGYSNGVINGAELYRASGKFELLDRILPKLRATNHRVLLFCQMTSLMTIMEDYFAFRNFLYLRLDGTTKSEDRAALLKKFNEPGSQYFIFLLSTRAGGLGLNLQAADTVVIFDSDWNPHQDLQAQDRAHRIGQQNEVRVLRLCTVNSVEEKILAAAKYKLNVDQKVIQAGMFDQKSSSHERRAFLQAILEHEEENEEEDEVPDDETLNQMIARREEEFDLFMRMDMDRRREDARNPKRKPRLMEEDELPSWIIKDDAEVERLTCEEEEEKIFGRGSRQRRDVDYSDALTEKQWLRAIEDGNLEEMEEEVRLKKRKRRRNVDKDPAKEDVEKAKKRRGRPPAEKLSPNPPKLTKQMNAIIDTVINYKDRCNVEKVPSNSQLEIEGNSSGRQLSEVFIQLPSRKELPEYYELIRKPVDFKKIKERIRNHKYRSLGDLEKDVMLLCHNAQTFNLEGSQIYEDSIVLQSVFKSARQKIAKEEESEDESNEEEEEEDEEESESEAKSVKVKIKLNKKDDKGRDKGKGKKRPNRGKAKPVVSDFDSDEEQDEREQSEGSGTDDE", "assay": "Luminescence-based cell-based high throughput dose response assay to identify activators of the function of SWI/SNF related, matrix associated, actin dependent regulator of chromatin, subfamily a, member 2 (SMARCA2, BRM).", "type": "functional"}, "[14]": {"assay": "Counterscreen for activators of the function of SWI/SNF related, matrix associated, actin dependent regulator of chromatin, subfamily a, member 2 (SMARCA2, BRM): Luminescence-based cell-based high throughput dose response assay to identify non-selective compounds using the VP16 reporter assay.", "type": "functional"}, "[15]": {"assay": "NIH-3T3 fibroblast cytotoxicity, dose response, cytotoxicity control, cell-based, fluorescence, Alamar Blue, secondary assay (AID 2327);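 also: NIH-3T3 mouse fibroblasts cultured with fluconazole at 8 µg/mL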", "type": "functional"}, "[16]": {"assay": "C. albicans growth with fluconazole, confirmation, fluorescence, retest (AID 2467)", "type": "functional, cell-based"}, "Vero [17]": {"tested_on": "Vero", "assay": "cells", "type": "functional, cell-based", "settings": "Chlorocebus sabaeus"}, "[18]": {"assay": "ARNT/TACC3 interaction disruptors, potency, confirmation, biochemical, AlphaScreen, cherry-picked samples (AID 651703);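 also: His-tagged ARNT PAS-B domain paired with GST-TACC3 E629A dimer coactivator fragment; potency of inhibitors that break up the complex and lower AlphaScreen signal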", "type": "functional, Homo sapiens"}}, "note": "Activity calls are given as the source filed them."}
{"smiles": "O=C(Cc1ccccn1)NCC[C@@H]1CC[C@@H](NC(=O)Nc2ccc(Cl)cc2)[C@@H](CO)O1", "values": [{"measurement": "AbsAC35", "setting": "[1]", "result": 83.87, "unit": "µM"}]}
{"smiles": "C[C@H]1CN([C@@H](C)CO)C(=O)c2cccc(NC(=O)c3ccncc3)c2O[C@@H]1CN(C)Cc1ccc(C(=O)O)cc1", "values": [{"measurement": "IC50", "setting": "[2]", "result": "> 20 µM (inactive)"}]}
{"smiles": "CC/N=c1\\scc(-c2cccs2)n1/N=C/c1cc(OC)ccc1O", "values": [{"measurement": "IC50", "setting": "[3]", "result": "18.6 µM (active)"}, {"measurement": "IC50", "setting": "[4]", "result": "15.8 µM (active)"}]}
{"smiles": "O=[N+]([O-])c1ccc(COc2ccc(CN3CCOCC3)cc2)cc1", "values": [{"measurement": "IC50", "setting": "[5]", "result": "> 67.5 µM (inactive)"}, {"measurement": "IC50", "setting": "cells", "result": "> 67.5 µM (inactive)"}]}
{"smiles": "Cn1c(N2CCN(c3ccccn3)CC2)nc2c1c(=O)n(Cc1ccc(Cl)cc1)c(=O)n2C", "values": [{"measurement": "IC50", "setting": "HEK293 [6]", "result": "10.9 µM (active)"}, {"measurement": "IC50", "setting": "HEK293 [7]", "result": "7.19 µM (active)"}, {"measurement": "EC50", "setting": "HEK293 [8]", "result": "6.92 µM (active)"}, {"measurement": "EC50", "setting": "[9]", "result": "0.0074 µM (active)"}, {"measurement": "EC50", "setting": "[10]", "result": "0.081 µM (active)"}, {"measurement": "IC50", "setting": "HEK293 [11]", "result": "6 µM (active)"}]}
{"smiles": "O=C(Nc1ccccc1Cl)c1ccc([N+](=O)[O-])o1", "values": [{"measurement": "CC50", "setting": "Vero [12]", "result": "12.2 µM (active)"}, {"measurement": "EC50", "setting": "[13]", "result": "> 91.2 µM (inactive)"}, {"measurement": "EC50", "setting": "[14]", "result": "> 91.2 µM (inactive)"}, {"measurement": "EC50", "setting": "[15]", "result": "> 160 µM (inactive)"}, {"measurement": "EC50", "setting": "[16]", "result": "1.64 µM (active)"}, {"measurement": "IC50", "setting": "Vero [17]", "result": "> 25 µM (active)"}]}
{"smiles": "O=c1oc2ccccc2c(O)c1/C=N/Cc1ccccn1", "values": [{"measurement": "AC50", "setting": "[18]", "result": "109 µM (active)"}]}
